Assay [1] deals with SK-Mel-28 melanoma cells. Kind of assay: Anti-proliferative assay, cell-titre luminescent reagent, 72 h (GVK-BIO). Format: cell-based. The settings on record: Homo sapiens. The method, boiled down:
(§1)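 Seed at predetermined density, 24 h attach (37 °C, 5% CO2). Dose 4-point (30–0.03 μM, 10-fold) → IC50 by linear regression on semi-log plot; or 6-point (30–0.1 μM) → EC50 by sigmoidal variable-slope fit. Reagent 30 min, luminescence vs untreated control.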

For assay [2], the system named is MDA-MB-231 triple negative breast cancer cells. The description is as above. Format: cell-based. The settings on record: Homo sapiens. The method in brief: as §1
Assay [3] concerns PC3 prostate cancer cells. The description is as above. Type of assay: cell-based. The method, boiled down:
as §1

In assay [4] the test system is DU145 prostate cancer cells. The assay is described as above. Format: cell-based. The settings on record: Homo sapiens. The method in brief: as §1
Assay [5] concerns CaCo2 colorectal cancer cells. The description is as above. The conditions noted are these: Homo sapiens. Type of assay: cell-based. The method, boiled down: as §1
Assay [6] concerns A549 non-small cell lung carcinoma cells. Described as above. Format: cell-based. The settings on record: Homo sapiens, read-out: IC50/μM Lung (NSLC) A549. The method, boiled down: as §1
In assay [7] the test system is SK-N-SH neuroblastoma cells. Described as above. Type of assay: cell-based. The settings on record: Homo sapiens. The method, boiled down:
as §1

Assay [8] relates to melanoma (SK-Mel-28) cells. Kind of assay: Cell viability assay (MTT, 48 hr). Format: cell-based. The conditions noted are these: Homo sapiens, 48 hr treatment, read-out: IC50 (μM) SKMEL28. Here is the method: (§2) Cell viability assays were also conducted to assess the anti-proliferative effects of the anti-tropomyosin compounds 4001-4015. Briefly, cells (1×10^3/well) were plated (96-well) and treated (48 hr) with anti-tropomyosin drug and viability measured using 3-(4,5-dimethylthiazol-2-yl)-2,5-diphenylterazolium bromide MTT. Cell viability was normalized to control (vehicle alone) and dose-response curves, and half maximal effective concentration (EC50) values were determined using Graph Pad Prism 5 (nonlinear regression sigmoidal dose-response variable slope).

In assay [9] the test system is neuroblastoma (SH-EP) cells. Kind of assay: Cell viability assay (MTT, 48 hr). Format: cell-based. The conditions noted are these: 48 hr treatment, read-out: IC50 (μM) SHEP. Here is the method: as §2
Assay [10] relates to non-transfected and Tm5NM1 stably transfected MEFs. Kind of assay: MTT viability in non-transfected versus Tm5NM1 stably transfected MEFs. Format: cell-based, mouse. The conditions noted are these: 48 hr, FIG. 1. Here is the method: FIG. 1: Activity of selected compounds against Tm5NM1/2 transfected mouse embryonic fibroblasts versus non-transfected MEFs.
Compounds 4001, 4010, 4014, 4008 and 4015 were then screened against non-transfected and Tm5NM1 stably transfected MEFs. Briefly, MEFs were transfected with pEYFP-C1/Tm5NM1 constructs using the Amaxa nucleofector apparatus (program A-023) and MEF nucleofector kit 1 (Lonza) according to the manufacturer's instructions. Cell viability assays were also conducted to assess the anti-proliferative effects of the anti-tropomyosin compounds. Briefly, cells (1×10^3/well) were plated (96-well) and treated (48 hr) with anti-tropomyosin compounds and viability measured using 3-(4,5-dimethylthiazol-2-yl)-2, 5-diphenylterazolium bromide MTT. Cell viability was normalized to control (vehicle alone) and dose-response curves, and half maximal effective concentration (EC50) values were determined using Graph Pad Prism 5 (nonlinear regression sigmoidal dose-response variable slope).

[11] abbreviates: SK-MEL-28, 72 h, 30, 3, 0.3 and 0.03 μM, linear regression (Tables 2-4).
[12] abbreviates: MDA-MB-231, 72 h, 30, 3, 0.3 and 0.03 μM, linear regression (Tables 2-4).
Setting [13] is: 30, 3, 0.3 and 0.03 μM, linear regression (Tables 2-4).
Setting [14] is: DU-145, 72 h, 30, 3, 0.3 and 0.03 μM, linear regression (Tables 2-4).
Where [15] appears, read: Caco-2, 72 h, 30, 3, 0.3 and 0.03 μM, linear regression (Tables 2-4).
The mark [16] stands for this setting: A549, 72 h, 30, 3, 0.3 and 0.03 μM, linear regression (Tables 2-4).
Setting [17] is: SK-N-SH, 30, 3, 0.3 and 0.03 μM, linear regression (Tables 2-4).
Where [18] appears, read: SK-MEL-28, 72 h, 30, 10, 3, 1, 0.3 and 0.1 μM, nonlinear regression (Table 5).
The mark [19] stands for this setting: MDA-MB-231, 72 h, 30, 10, 3, 1, 0.3 and 0.1 μM, nonlinear regression (Table 5).
[20] abbreviates: 30, 10, 3, 1, 0.3 and 0.1 μM, nonlinear regression (Table 5).
The mark [21] stands for this setting: DU-145, 72 h, 30, 10, 3, 1, 0.3 and 0.1 μM, nonlinear regression (Table 5).
Where [22] appears, read: Caco-2, 72 h, 30, 10, 3, 1, 0.3 and 0.1 μM, nonlinear regression (Table 5).
Where [23] appears, read: A549, 72 h, 30, 10, 3, 1, 0.3 and 0.1 μM, nonlinear regression (Table 5).
[24] abbreviates: SK-N-SH, 30, 10, 3, 1, 0.3 and 0.1 μM, nonlinear regression (Table 5).

SMILES strings stand for the structures. Like-named read-outs stand apart in the source and are kept apart here.

For `CN(C)CCCn1ccc2cc(Cc3ccc(C(=O)Nc4ccccc4)cc3)ccc21` [Compound 4001, 4-((1-(3-(dimethylamino)propyl)-1H-indol-5-yl)methyl)-N-phenylbenzamide], the IC50 in assay [1] (setting [11]) worked out at 3.6 µM; in assay [2] (setting [12]) it was 3.1 µM; in assay [3] (setting [13]) it was 2.8 µM; in assay [4] (setting [14]), 3.2 µM; in assay [5] (setting [15]), 3 µM; in assay [6] (setting [16]), 2.7 µM. The results for the IC50 in assay [7] (setting [17]), in assay [8] and in [9] were 4.1 µM, 4.3 µM and 4.63 µM, respectively. In assay [10], the “Selectivity: toxicity against primary MEFs versus MEFs stably transfected with Tm5NM1/2” value was “less toxicity noted against primary mouse embryonic fibroblasts (MEFs) compared with MEFs stably transfected with Tm5NM1/2”.
Consider `CN(C)CCCn1ccc2cc(Oc3ccc(C(=O)Nc4ccccc4)cc3)ccc21` [Compound 4002, 4-((1-(3-(dimethylamino)propyl)-1H-indol-5-yl)oxy)-N-phenylbenzamide], for which the IC50 in assay [1] (setting [18]) came to 9.3 µM; in [2] (setting [19]), 15.7 µM; in assay [3] (setting [20]) it was 12.4 µM; in assay [4] (setting [21]), 37.4 µM; in assay [5] (setting [22]), 13.1 µM; in [6] (setting [23]), 16.3 µM. Besides, the IC50 in assay [7] (setting [24]) worked out at 3.2 µM; in [8] it was 7.04 µM; in assay [9] it was 9.24 µM.
Take `CN(C)CCCn1ccc2cc(-c3cnn(Cc4ccccc4)c3)ccc21` [Compound 4003, 3-(5-(1-benzyl-1H-pyrazol-4-yl)-1H-indol-1-yl)-N,N-dimethylpropan-1-amine]: the IC50 in assay [8] came to 25.9 µM.
As to `CC(c1ccccc1)n1cc(-c2ccc3c(ccn3CCCN(C)C)c2)cn1` (stereo not shown) [Compound 4004, N,N-dimethyl-3-(5-(1-(1-phenylethyl)-1H-pyrazol-4-yl)-1H-indol-1-yl)propan-1-amine], the results for the IC50 in [8] and in assay [9] were 9.8 µM and 6.7 µM, respectively.
The corresponding values for `CN(C)CCCn1ccc2cc(-c3cnn(CC4CCN(C)CC4)c3)ccc21` [Compound 4005, N,N-dimethyl-3-(5-(1-((1-methylpiperidin-4-yl)methyl)-1H-pyrazol-4-yl)-1H-indol-1-yl)propan-1-amine] are 53.8 µM and 5.4 µM.
On to `CN(C)CCCn1ccc2cc(-c3cnn(CC4CCOCC4)c3)ccc21` [Compound 4006, N,N-dimethyl-3-(5-(1-((tetrahydro-2H-pyran-4-yl)methyl)-1H-pyrazol-4-yl)-1H-indol-1-yl)propan-1-amine], for which, in assay [9], the IC50 was 107 µM.
Regarding `CN(C)CCCn1ccc2cc(Cc3cccc(C(=O)Nc4ccccc4)c3)ccc21` [Compound 4008], the IC50 came out at 3.3 µM in assay [1] (setting [11]); 3.9 µM in assay [2] (setting [12]); 4.3 µM in assay [3] (setting [13]); 3.3 µM in [4] (setting [14]); 5.8 µM in assay [5] (setting [15]); 3.8 µM in assay [6] (setting [16]). The IC50 is 9.3 µM in assay [7] (setting [17]), 3.4 µM in assay [8] and 2.7 µM in [9].
With `Cc1c(C)n(CCCN(C)C)c2ccc(-c3cnn(Cc4ccccc4)c3)cc12` [Compound 4009, 3-(5-(1-benzyl-1H-pyrazol-4-yl)-2,3-dimethyl-1H-indol-1-yl)-N,N-dimethylpropan-1-amine], the IC50 is 5.4 µM in assay [8] and 3 µM in assay [9].
For the compound `Cc1c(C)n(CCCN(C)C)c2ccc(Nc3cccc(C(=O)Nc4ccccc4)c3)cc12` [Compound 4011, 3-((1-(3-(dimethylamino)propyl)-2,3-dimethyl-1H-indol-5-yl)amino)-N-phenylbenzamide], the IC50 in assay [1] (setting [11]) was found to be 6.1 µM; in assay [2] (setting [12]), 2.5 µM; in assay [3] (setting [13]), 4.3 µM; in [4] (setting [14]), 3.3 µM; in [5] (setting [15]) it was 2.8 µM; in assay [6] (setting [16]), 3 µM. The IC50 in assay [7] (setting [17]) is 2.5 µM; in assay [8] it was 9.7 µM; in [9], 8.7 µM.
Take `CN(C)CCCn1ccc2cc(Nc3cccc(C(=O)Nc4ccccc4)c3)ccc21` [Compound 4013, 3-((1-(3-(dimethylamino)propyl)-1H-indol-5-yl)amino)-N-phenylbenzamide]: the IC50 in [1] (setting [11]) is 9.2 µM; in assay [2] (setting [12]) it was 3.7 µM; in assay [3] (setting [13]), greater than 30 µM; in assay [4] (setting [14]), greater than 30 µM; in [5] (setting [15]) it was greater than 30 µM; in assay [6] (setting [16]) it was 7.6 µM. The IC50 in assay [7] (setting [17]) was 4.2 µM; in [8] it was 15.8 µM; in assay [9] it was 14.5 µM.
`Cc1c(C)n(CCCN2CCN(C)CC2)c2ccc(C(=O)N3CCN(CCc4cccc(F)c4)CC3)cc12` [Compound 4124, (2,3-dimethyl-1-(3-(4-methyl piperazin-1-yl)propyl)-1H-indol-5-yl)(4-(3-fluorophenethyl)piperazin-1-yl)methanone]: the IC50 in assay [1] (setting [11]) is 15.9 µM; in assay [2] (setting [12]), 13.9 µM; in assay [3] (setting [13]), 21.8 µM; in assay [4] (setting [14]), greater than 30 µM; in assay [5] (setting [15]) it was 29.6 µM; in assay [6] (setting [16]) it was 15 µM. This compound also displayed an IC50 in assay [7] (setting [17]) of 10.9 µM.
Take `COc1cccc(CCN2CCN(C(=O)c3ccc4c(c3)c(C)c(C)n4CCCN3CCN(C)CC3)CC2)c1` [Compound 4125, (2,3-dimethyl-1-(3-(4-methylpiperazin-1-yl)propyl)-1H-indol-5-yl)(4-(3-methoxyphenethyl)piperazin-1-yl)methanone]: the IC50 was 25 µM in [1] (setting [11]); 33.2 µM in [2] (setting [12]); greater than 30 µM in assay [3] (setting [13]); greater than 30 µM in assay [4] (setting [14]); greater than 30 µM in assay [5] (setting [15]); 19.4 µM in [6] (setting [16]). The IC50 in assay [7] (setting [17]) turned out to be 14.9 µM.
For the compound `Cc1c(C)n(CCCN2CCN(C)CC2)c2ccc(C(=O)N3CCN(CCc4cccc(O)c4)CC3)cc12` [Compound 4126, (2,3-dimethyl-1-(3-(4-methylpiperazin-1-yl)propyl)-1H-indol-5-yl)(4-(3-hydroxyphenethyl)piperazin-1-yl)methanone], the IC50 in assay [1] (setting [18]), in assay [2] (setting [19]), in [3] (setting [20]), in [4] (setting [21]), in assay [5] (setting [22]) and in assay [6] (setting [23]) was greater than 30 µM in each case. This compound registered an IC50 in assay [7] (setting [24]) greater than 30 µM.
Consider `Cc1c(C)n(CCCN2CCN(C)CC2)c2ccc(C(=O)N3CCN(CCc4ccccc4)CC3)cc12` [Compound 4127, (2,3-dimethyl-1-(3-(4-methylpiperazin-1-yl)propyl)-1H-indol-5-yl)(4-phenethylpiperazin-1-yl)methanone], for which the IC50 in assay [1] (setting [11]) is 14.4 µM; in assay [2] (setting [12]), 13.5 µM; in assay [3] (setting [13]), 12.9 µM; in [4] (setting [14]), greater than 30 µM; in assay [5] (setting [15]) it was 10.7 µM; in [6] (setting [16]) it was 13.1 µM. The compound also showed an IC50 in assay [7] (setting [17]) of 10.5 µM.
